The target in the assay is Jak2 (Homo sapiens, UniProt O60674). The assay is classed as biochemical.

Data on 1 compound can be found in publication PMC3207250 (2011).

Chain of Jak2 (O60674 whole entry): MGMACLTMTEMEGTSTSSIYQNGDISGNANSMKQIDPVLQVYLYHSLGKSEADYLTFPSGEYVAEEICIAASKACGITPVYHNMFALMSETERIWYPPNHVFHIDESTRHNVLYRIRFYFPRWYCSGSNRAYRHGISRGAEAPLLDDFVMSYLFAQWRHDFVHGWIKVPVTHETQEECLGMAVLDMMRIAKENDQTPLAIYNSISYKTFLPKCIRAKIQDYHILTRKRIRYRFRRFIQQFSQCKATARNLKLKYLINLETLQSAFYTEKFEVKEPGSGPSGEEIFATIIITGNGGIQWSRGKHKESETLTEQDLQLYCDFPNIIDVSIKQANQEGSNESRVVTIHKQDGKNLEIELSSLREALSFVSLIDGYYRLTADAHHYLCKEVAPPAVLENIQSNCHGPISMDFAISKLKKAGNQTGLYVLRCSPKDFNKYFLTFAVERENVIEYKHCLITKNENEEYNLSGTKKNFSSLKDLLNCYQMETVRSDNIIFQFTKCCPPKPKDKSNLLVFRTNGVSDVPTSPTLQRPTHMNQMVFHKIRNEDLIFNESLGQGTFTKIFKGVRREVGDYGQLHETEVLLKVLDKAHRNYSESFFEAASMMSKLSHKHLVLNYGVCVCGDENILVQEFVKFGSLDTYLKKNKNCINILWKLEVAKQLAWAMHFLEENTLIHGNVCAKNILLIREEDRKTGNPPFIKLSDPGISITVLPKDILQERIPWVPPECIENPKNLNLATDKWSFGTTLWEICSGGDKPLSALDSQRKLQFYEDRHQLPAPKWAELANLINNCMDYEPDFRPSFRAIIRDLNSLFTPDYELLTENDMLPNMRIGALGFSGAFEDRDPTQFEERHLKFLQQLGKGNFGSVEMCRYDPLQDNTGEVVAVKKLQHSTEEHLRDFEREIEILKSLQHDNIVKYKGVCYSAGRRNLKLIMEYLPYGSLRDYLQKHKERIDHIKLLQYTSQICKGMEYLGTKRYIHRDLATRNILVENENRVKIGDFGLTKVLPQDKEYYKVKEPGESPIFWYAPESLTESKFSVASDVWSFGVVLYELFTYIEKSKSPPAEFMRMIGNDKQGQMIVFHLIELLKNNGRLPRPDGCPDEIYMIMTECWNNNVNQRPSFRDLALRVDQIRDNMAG

The compound `NC(=O)Nc1sc(-c2ccc(F)cc2)cc1C(N)=O` [TPCA-1, 2-[(Aminocarbonyl)amino]-5-(4-fluorophenyl)-3-thiophenecarboxamide] displayed an inhibition constant (Ki) of approximately 9 nM.

What is called Ki is a measure of affinity in units of concentration, obtained from inhibition or displacement. Read a low Ki as tighter binding.
